Activity calls are given as the source filed them. No cut-off for these calls is given here.

In one test the target is Protein farnesyltransferase (Rattus norvegicus, UniProt Q02293+Q04631). As to the kind of experiment: In vitro inhibition of Farnesyltransferase (FT) by using FT [3H]-SPA kit. Format: protein-complex assay.
Usually IC50 stands for the point on the concentration scale where inhibition reaches its midpoint. Read a low IC50 as inhibition by little substance. As for `O=C1c2cc([N+](=O)[O-])cc(C(=O)N3CCCCC3)c2-c2c1cc([N+](=O)[O-])cc2[N+](=O)[O-]`, 96 µM corresponded to half-maximal inhibition (IC50).

For another test, the target named is T1, Protein farnesyltransferase (Rattus norvegicus) (UniProt Q04631+Q02293). As to the kind of experiment: In vitro inhibition of farnesyl transferase (FT) by using FT [3H]-SPA kit at the dose of 100 uM. Format: protein-complex assay.
A word on the inhibition: it is how much of the control response was suppressed. In turn, `O=C(Oc1cc(S(=O)(=O)c2ccccc2)ccc1[N+](=O)[O-])c1cccnc1Cl` displayed an inhibition of 19.7%.

Compound `O=C(OCC(F)(F)C(F)(F)C(F)(F)C(F)(F)F)c1cc([N+](=O)[O-])cc2c1-c1c(cc([N+](=O)[O-])cc1[N+](=O)[O-])C2=O` came in with an inhibition of 41.1%.

With `O=C1NC(=S)S/C1=C\c1ccccc1I`, the inhibition was found to be 39.2%.

`CC(=O)c1cc(C(=O)c2ccc(F)cc2)n2cnc3cc(F)ccc3c12` returned an inhibition of 24.5%.

With `COc1cc(C(c2c(O)oc3ccccc3c2=O)c2c(O)oc3ccccc3c2=O)cc(OC)c1OC`, the inhibition was 27.8%.

`Cc1ccc(S(=O)(=O)N(C)c2ccc(Cl)cc2C2=NCC(C)(C)c3ccccc32)cc1`: the inhibition worked out at 16.8%.

`O=C(Nc1ccc(F)cc1[N+](=O)[O-])Oc1ccc2cc(Br)ccc2c1` gave an inhibition of 26.4%.

In turn, `COc1ccc(C=C(C(=O)c2ccccc2)C(=O)c2ccccc2)cc1` returned an inhibition of 30%.

For `O=[N+]([O-])c1ccc(C2CC(c3cccnc3)=NN2c2ccccc2)cc1` (stereo not drawn), the inhibition stood at 43.9%.

For `Cc1ccc(S(=O)(=O)C(Cl)(Cl)S(=O)(=O)c2ccc(C)cc2)cc1`, the inhibition was determined as 41.6%.

`O=C(Cc1cccc2ccccc12)NC(NC(=S)N1CCOCC1)C(Cl)(Cl)Cl` (stereo not drawn) gave an inhibition of 23.8%.

The compound `CCCCCCn1c(N)c(C#N)c2ccc([N+](=O)[O-])cc2c1=O` gave an inhibition of 32.2%.

The target of another test is T1, Protein farnesyltransferase (Rattus norvegicus). The test can be described thus: In vitro inhibition of farnesyl transferase (FT) by using FT [3H]-SPA kit at the dose of 500 uM. Format: protein-complex assay.
The compound `NC(=O)c1cc2c(c([N+](=O)[O-])c1)-c1c(cc(C(N)=O)cc1[N+](=O)[O-])C2=O` gave an inhibition of 27.3%.

`COc1cccc(C2Nc3ccccc3CN2NS(=O)(=O)c2ccc(C)cc2)c1O` (stereo not drawn) returned an inhibition of 16.8%.

Consider `CC(=O)OCC(COC(C)=O)(CN1C(=O)c2ccccc2C1=O)CN1C(=O)c2ccccc2C1=O`, for which the inhibition was 60.2%.

Turning to `CN(C)c1ccc(C(=O)N/N=C/c2ccccc2[N+](=O)[O-])cc1`, the inhibition is 28.3%.

`O=[N+]([O-])c1cc(C(F)(F)F)cc([N+](=O)[O-])c1Oc1ccc(S(=O)(=O)N2CCOCC2)cc1` registered an inhibition of 50.8%.

`CCN(CC#N)c1ccc(/C=N/c2ccc(SC)cc2)cc1` showed an inhibition of 15.8%.

In the case of `CCN(CC)c1cccc(OC(=O)Nc2cccc(C(F)(F)F)c2)c1`, the inhibition worked out at 21.2%.

In turn, `Nc1c(C(=O)Nc2ccccc2)sc2nc3c(c(-c4cccnc4)c12)CCC3` displayed an inhibition of 23.9%.

`Cc1c(/N=C/N(C(=O)c2ccccc2)c2cccc([N+](=O)[O-])c2C)cccc1[N+](=O)[O-]`: the inhibition was determined as 17%.

As to `Cc1ccc(S(=O)(=O)NC2(Nc3cccc(C)c3)C(Cl)=C(Cl)C(=O)C(Cl)(Cl)C2(Cl)Cl)cc1` (stereo not drawn), the inhibition amounted to 24.9%.

The next test shares this target. The test can be described thus: In vitro inhibition of farnesyl transferase (FT) by using FT [3H]-SPA kit; IA is inactive. Format: protein-complex assay.
With `CSc1nc(N/C=C(\C#N)S(=O)(=O)c2ccccc2Cl)nc(N(C)C)n1`, the inhibition result is “inactive”.

In the case of `O=C(N/N=C/c1ccccc1O)N(c1ccccc1)c1ccccc1`, the inhibition entry is “inactive”.

In the case of `COc1ccccc1/N=C(\S)NC1CCCCCCCCCCC1`, the inhibition entry was “inactive”.

As for `O=C(Cc1c(Cl)cc(Cl)cc1Cl)C(=O)Oc1c(Cl)cc(Cl)cc1Cl`, the inhibition entry was “inactive”.

Take `Cc1c(-c2ccnc(SCc3ccccc3)n2)sc2ccc(Cl)cc12`: the inhibition entry was “inactive”.

As to `N=C(NOC(=O)Nc1ccc(Cl)cc1)c1ccc(OCc2ncc(C(F)(F)F)cc2Cl)cc1`, the inhibition result is “inactive”.

In the case of `CC(C)C(NC(=O)OCc1ccccc1)C(=O)NC(C)(C)C` (stereo not drawn), the inhibition entry was “inactive”.

As to `Cc1cc(C)c(S(=O)(=O)Cc2ccccc2)c(OC(C)C)n1`, the inhibition entry is “inactive”.

Turning to `O=[N+]([O-])c1ccc(-c2csc(-c3ccc(Cl)cc3)n2)cc1CS(=O)(=O)c1ccc(Cl)cc1`, the inhibition entry was “inactive”.

Regarding `O=C(NC(=O)C(c1ccc(Cl)cc1)c1ncc(C(F)(F)F)cc1Cl)Nc1ccc(Cl)cc1` (stereo not drawn), the inhibition result is “inactive”.

For `COc1ccc(CCN2C(=O)CS/C2=N\c2c(C)cccc2C)cc1OC`, the inhibition result was “inactive”.

Regarding `Cc1cc(-c2nc(-c3ccc(C(F)(F)F)cc3)no2)n(C)n1`, the inhibition entry was “inactive”.

Turning to `Clc1ccc(-c2cc(-c3csc(N/N=C/c4ccccc4)n3)on2)c(Cl)c1`, the inhibition result is “inactive”.

As for `O=C1c2cccc([N+](=O)[O-])c2C(=O)N1c1ccc(S(=O)(=O)c2ccc(N3C(=O)c4cccc([N+](=O)[O-])c4C3=O)cc2)cc1`, the inhibition entry is “inactive”.

Turning to `COc1cccc(NS(=O)(=O)c2ccc(-c3ccc(S(=O)(=O)Nc4cccc(OC)c4)s3)s2)c1`, the inhibition result was “inactive”.

(Values after ChEMBL document CHEMBL1133580, “Successful virtual screening of a chemical database for farnesyltransferase inhibitor leads” (J Med Chem, 2000).)
